Results taken from patent US4225595A, “Piperazine phosphates and phosphonate insecticides” (priority 1979, dated 1980).
≈ marks a conversion by molar mass, not a printed value.

Legend:
[1] = test system: Black Bean Aphid [Aphis fabae (Scop.)]; assay: Black Bean Aphid (BBA) plant spray assay, mortality after three days; assay type: in vivo; conditions: spray on infested nasturtium plants
Excerpt: (§1) Screening was initiated at a maximal concentration level believed to be injurious to the insect population. The initial level should not be understood as representing a maximum at which a viable test for insecticidal activity can be conducted. […]
(§2) Nasturtium plants, Tropaeolum sp., approximately five centimeters (cm) high were transplanted into sandy loam soil in three-inch clay pots. Each pot was infested with 25-50 black bean aphids of mixed ages. Twenty-four hours later the pots were sprayed to the point of run-off with 50--50 acetone-water solutions of the test compounds.
(§3) Mortality rates were recorded after the infested plants had been held in the greenhouse for three days. Test concentrations ranged from 0.05% down to that at which 50% mortality occurs. Green Peach Aphid [Myzus persicae (Sulzer)], (GPA)
(§4) A less than 50% mortality rate at the initial concentration is indicated by a "greater than" sign (>). An approximately 50% mortality rate is indicated by the initial concentration rate. Other results are the dilutions at which an LD50 was achieved.

[2] = test system: Green Peach Aphid [Myzus persicae (Sulzer)]; assay: Green Peach Aphid (GPA) plant spray assay; assay type: in vivo; conditions: spray on infested radish plants, three days
Excerpt: (§5) Screening was initiated at a maximal concentration level believed to be injurious to the insect population. The initial level should not be understood as representing a maximum at which a viable test for insecticidal activity can be conducted.
as §2, §3
(§6) The insecticidal properties were tested in the same manner as for black beam aphids with the substitution of the nasturtiums by radish plants, Rhaphanus sativus. German Cockroach [Blatella germanica (Linne)], (GR)--Direct Spray
as §4

[3] = test system: German Cockroach [Blatella germanica (Linne)]; assay: German Cockroach (GR) direct spray, mortality 7 days later; assay type: in vivo; conditions: one-month-old nymphs, initial 0.1%
Experimental: as §5
(§7) Mobile insects, such as houseflies, German cockroaches, Lygus bugs, were contained for treatment in circular cardboard cages covered with cellophane on the bottom and tulle netting on the top.
as §6
(§8) Test compounds were diluted in a 50--50 acetonewater solution. Two cubic centimeters (cc) of the compound solutions were sprayed through a DeVilbiss type EGA hand spray gun into cages each containing 10 one-month-old German cockroach nymphs.
The percent mortality was recorded 7 days later. Test concentrations ranged from 0.1% down to that at which approximately 50% mortality occurs.
as §4

[4] = test system: Lygus Bug [Lygus hesperus (Knight)]; assay: Lygus Bug (LB) direct spray assay, mortality 48 hours later; assay type: in vivo; conditions: adults, initial 0.05%
Experimental: as §5, §7, §8
Lygus Bug [Lygus hesperus (Knight)], (LB)--Direct Spray Assay
(§9) The species was treated in the same manner as the German cockroach. The cages contained one string beam pod and 10 adult Lygus bugs. The percent mortality was recorded 48 hours later. Test concentrations ranged from 0.05% down to that at which approximately 50% mortality occurs. Saltmarsh Caterpillar [Estigmene acrea (Drury)], (SMC)--Leaf Dip Assay
as §4

[5] = test system: Cabbage Looper [Trichoplusia ni (Hubner)]; assay: Cabbage Looper (CL) leaf dip assay; assay type: in vivo; conditions: squash cotyledons, initial 0.1%
Experimental: as §5
(§10) Test compounds were diluted in a 50--50 acetone-water solution. Approximately 1×1.5 inch sections of curly dock (Rumex crispus) leaves were immersed in the test solution for 2-3 seconds. After drying on a wire screen, the leaves were placed in petri dishes containing a moistened piece of filter paper. Each dish was infested with 5 secondinstar saltmarsh larvae.
(§11) Mortality of the larvae was recorded 48 hours later. A piece of synthetic media was added to the dishes containing surviving larvae. The larvae were then observed for 5 additional days for delayed effects of the test compounds. Test concentrations ranged from 0.05% down to that at which approximately 50% mortality occurs. Cabbage Looper [Trichoplusia ni (Hubner)], (CL)
The effectiveness of the compounds was tested in the same manner as for the saltmarsh caterpillar with two exceptions. Cotyledons of hyzini squash (Calabacita abobrinha, were substituted for curly dock leaves and the initial test concentration was 0.1%. Tobacco Budworm [Heliothis virescens (Fabricius)], (TBW)
as §4

[6] = test system: Southern House Mosquito Larvae (Culex pipiens quinquefasciatus); assay: Southern House Mosquito larvae (M) assay, mortality 48 hours after treatment; assay type: in vivo; conditions: third-instar larvae in aqueous solution, initial 1 ppm, read-out: LD50 M
Experimental: as §5
Tobacco budworms were tested in the same manner as the cabbage looper. Romaine lettuce (Latuca sativa) leaves provided the substrate. Southern House Mosquito Larvae (Culex pipiens quinquefasciatus), (M)
Ten third-instar larvae were placed in a six ounce wax paper cup containing 100 ml of an aqueous solution of the test compounds at a concentration of 1 ppm. The treated larvae were stored at 70° F. (21.5° C.) and mortality was recorded 48 hours after treatment. Two-Spotted Mite [Tetranychus urticae (Koch)], (2SM)
as §4

[7] = test system: Two-Spotted Mite [Tetranychus urticae (Koch)]; assay: Two-Spotted Mite (2SM) plant dip assay, mortality seven days later; assay type: in vivo; conditions: for LD50 2SM Adults: adult mites; for LD50 2SM Eggs: eggs (nymphs hatching after treatment)
Excerpt: as §1
Pinto bean plants (Phaseolus vulgaris) approximately 10 cm high were transplanted into sandy loam soil in three-inch clay pots. The plants were thoroughly infested with two-spotted mites of mixed ages and sexes. Twenty-four hours after infestation the plants were inverted and dipped for 2-3 seconds in 50--50 acetone-water solutions of the test compounds.
Mortality ratings for both adult mites and nymphs hatching after treatment were taken seven days later. Test concentrations ranged from 0.05% down to that at which 50% mortality occurs.
as §4

[8] = test system: Housefly [Musca domestica (Linn.)]; conditions: topical, 48 h
Experimental: Housefly [Musca domestica (Linn.)], (HF)--Contact Residue Assay
Test compounds were diluted in acetone and aliquots were pipetted onto the bottom of 55×15 millimeter (mm) aluminum dishes. One ml of acetone containing 0.02% peanut oil was added to each dish to insure even spreading. After all solvents had evaporated the dishes were placed in cages each containing 25 one to two day old female houseflies. Each cage contained a sugar-water cotton plug for sustanence of the flies.
Mortality rates were recorded after 48 hours. Test levels ranged from 10 μ/25 .female. houseflies down to that at which approximately 50% mortality occurs.

[9] = test system: Tobacco Budworm [Heliothis virescens (Fabricius)]; conditions: leaf dip, Romaine lettuce leaves
Experimental: Mortality of the larvae was recorded 48 hours later. A piece of synthetic media was added to the dishes containing surviving larvae. […] Test concentrations ranged from 0.05% down to that at which approximately 50% mortality occurs.

[10] = test system: Saltmarsh Caterpillar [Estigmene acrea (Drury)]; assay: Saltmarsh Caterpillar (SMC) leaf dip assay; assay type: in vivo; conditions: curly dock leaves, second-instar larvae, 48 hours + 5 days
Experimental: as §5, §9, §10, §11, §4

CCOP(=S)(OCC)SCC(=O)N1CCN(C(=O)OC)CC1 [Compound 3, 1-N-methoxycarbo-4-N-O,O-diethylphosphorodithioylacetyl piperazine]
LD50 BBA [1]: .001%
LD50 GPA [2]: .01%
LD50 GR [3]: > .1%
LD50 LB [4]: > .05%
LD50 CL [5]: > .1%
LC50 [6]: > 1 µg/mL
LD50 2SM Adults [7]: < .05%
LD50 2SM Eggs [7]: < .05%
LD50 HF [8]: > 10 μg/25
LD50 TBW [9]: > .1%

CCOC(=O)N1CCN(C(=O)CSP(=S)(OC)OC)CC1 [Compound 10, 1-N-ethoxycarbo-4-N-O,O-dimethylphosphorodithioylacetyl piperazine]
LD50 BBA [1]: .0002%
LD50 GPA [2]: .002%
LD50 GR [3]: > .1%
LD50 LB [4]: > .05%
LD50 CL [5]: > .1%
LC50 [6]: 1 µg/mL (≈ 2.81 µM)
LD50 2SM Adults [7]: .002%
LD50 2SM Eggs [7]: .005%
LD50 HF [8]: > 10 μg/25
LD50 TBW [9]: > .05%

CCOC(=O)N1CCN(C(=O)CSP(=S)(OC)OC)C(C)C1 (centres unmarked) [Compound 11, 1-N-ethoxycarbo-4-N'-O,O-dimethylphosphorodithioylacetyl-3-methyl piperazine]
LD50 BBA [1]: .002%
LD50 GPA [2]: .03%
LD50 GR [3]: > .1%
LD50 LB [4]: > .05%
LD50 SMC [10]: .05%
LD50 CL [5]: > .1%
LC50 [6]: 1 µg/mL (≈ 2.7 µM)
LD50 2SM Adults [7]: < .05%
LD50 2SM Eggs [7]: < .05%
LD50 HF [8]: > 10 μg/25
LD50 TBW [9]: .1%

CCOC(=O)N1CCN(C(=O)CSP(=S)(OCC)OCC)CC1 [Compound 12, 1-N-ethoxycarbo-4-N-O,O-diethylphosphorodithioylacetyl piperazine]
LD50 BBA [1]: .001%
LD50 GPA [2]: .008%
LD50 GR [3]: > .1%
LD50 LB [4]: > .05%
LD50 SMC [10]: > .05%
LD50 CL [5]: > .1%
LC50 [6]: > 1 µg/mL
LD50 2SM Adults [7]: .001%
LD50 2SM Eggs [7]: .002%
LD50 HF [8]: > 10 μg/25
LD50 TBW [9]: > .1%

CCOC(=O)N1CCN(C(=O)CSP(=S)(OCC)OCC)C(C)C1 (centres unmarked) [Compound 13, 1-N-ethoxycarbo-4-N'-O,O-diethylphosphorodithioylacetyl-3-methyl piperazine]
LD50 BBA [1]: .003%
LD50 GPA [2]: .008%
LD50 GR [3]: > .1%
LD50 LB [4]: > .05%
LD50 SMC [10]: > .05%
LD50 CL [5]: > .1%
LC50 [6]: > 1 µg/mL
LD50 2SM Adults [7]: .003%
LD50 2SM Eggs [7]: .006%
LD50 HF [8]: > 10 μg/25
LD50 TBW [9]: > .05%

CCOC(=O)N1CCN(C(=O)CSP(=O)(OCC)OCC)C(C)C1 (centres unmarked) [Compound 14, 1-N-carboethoxy-4-N'-O,O-diethylphosphoromonothioylacetyl-3-methyl piperazine]
LD50 BBA [1]: .0005%
LD50 GPA [2]: .005%
LD50 GR [3]: > .1%
LD50 LB [4]: > .05%
LD50 CL [5]: > .1%
LC50 [6]: > 1 µg/mL
LD50 2SM Adults [7]: < .05%
LD50 2SM Eggs [7]: < .05%
LD50 HF [8]: > 10 μg/25
LD50 TBW [9]: > .1%

COP(=S)(OC)SCC(=O)N1CCN(C(=O)OC(C)C)CC1 [Compound 18, 1-N-ispropoxycarbo-4-N-O,O-dimethylphosphorodithioylacetyl piperazine]
LD50 BBA [1]: .0005%
LD50 GPA [2]: .005%
LD50 GR [3]: > .1%
LD50 LB [4]: > .05%
LD50 SMC [10]: > .05%
LD50 CL [5]: > .1%
LC50 [6]: 1 µg/mL (≈ 2.7 µM)
LD50 2SM Adults [7]: < .05%
LD50 2SM Eggs [7]: < .05%
LD50 HF [8]: > 10 μg/25
LD50 TBW [9]: > .1%

CCOP(=S)(OCC)SCC(=O)N1CCN(C(=O)OC(C)C)CC1 [Compound 19, 1-N-isopropoxycarbo-4-N-O,O-diethylphosphorodithioylacetyl piperazine]
LD50 BBA [1]: .0006%
LD50 GPA [2]: .006%
LD50 GR [3]: > .1%
LD50 LB [4]: > .05%
LD50 SMC [10]: > .05%
LD50 CL [5]: > .1%
LC50 [6]: > 1 µg/mL
LD50 2SM Adults [7]: < .05%
LD50 2SM Eggs [7]: < .05%
LD50 HF [8]: > 10 μg/25
LD50 TBW [9]: > .1%

CCOP(=O)(OCC)SCC(=O)N1CCN(C(=O)OC(C)C)CC1 [Compound 20, 1-N-isopropoxycarbo-4-N-O,O-diethylphosphoromonothioylacetyl piperazine]
LD50 BBA [1]: .0005%
LD50 GPA [2]: .008%
LD50 GR [3]: > .1%
LD50 LB [4]: > .05%
LD50 SMC [10]: > .05%
LD50 CL [5]: > .1%
LC50 [6]: > 1 µg/mL
LD50 2SM Adults [7]: < .05%
LD50 2SM Eggs [7]: < .05%
LD50 HF [8]: > 10 μg/25
LD50 TBW [9]: .1%

CCOP(=S)(OCC)SCC(=O)N1CCN(C(=O)Oc2ccccc2)CC1 [Compound 23, 1-N-phenyloxycarbo-4-N-O,O-diethylphosphorodithioylacetyl piperazine]
LD50 BBA [1]: .002%
LD50 GPA [2]: .008%
LD50 GR [3]: > .1%
LD50 LB [4]: > .05%
LD50 CL [5]: .1%
LC50 [6]: 1 µg/mL (≈ 2.31 µM)
LD50 2SM Adults [7]: < .05%
LD50 2SM Eggs [7]: < .05%
LD50 HF [8]: > 10 μg/25
LD50 TBW [9]: > .1%

CCOP(=S)(OCC)SCC(=O)N1CCN(C(=O)SC)CC1 [Compound 27, 1-N-methylthiocarbo-4-N-O,O-diethylphosphorodithioylacetyl piperazine]
LD50 BBA [1]: .001%
LD50 GPA [2]: .01%
LD50 GR [3]: > .1%
LD50 LB [4]: > .05%
LD50 CL [5]: > .1%
LC50 [6]: > 1 µg/mL
LD50 2SM Adults [7]: < .05%
LD50 2SM Eggs [7]: < .05%
LD50 HF [8]: > 10 μg/25
LD50 TBW [9]: > .1%

COP(=S)(OC)SCC(=O)N1CCN(C(=O)SC(C)(C)C)CC1C (centres unmarked) [Compound 32, 1-N-carbo-t-butylthio-4-N'-O,O-dimethylphosphorodithioylacetyl-3-methyl piperazine]
LD50 BBA [1]: > .05%
LC50 [6]: > 1 µg/mL
LD50 2SM Adults [7]: > .05%
LD50 2SM Eggs [7]: > .05%
LD50 HF [8]: > 10 μg/25
LD50 TBW [9]: > .05%

CCOP(=S)(OCC)SCC(=O)N1CCN(C(=O)SC(C)(C)C)CC1C (centres unmarked) [Compound 33, 1-N-carbo-t-butylthio-4-N'-O,O-diethylphosphorodithioylacetyl-3-methyl piperazine]
LD50 BBA [1]: > .005%
LD50 HF [8]: > 10 μg/25
LD50 TBW [9]: > .05%
